Measured values from patent publication US8168238B2, “Extracts of Aquilaria hulls and use thereof in the treatment of cancer” (priority 2009, dated 2012).
≈ marks a conversion by molar mass, not a printed value.

Assays:
P-388 leukemia cells = experiment: MTT assay in P-388 leukemia cells; assay type: cell-based; settings: for IC50: Mus musculus, P388, P-388 cells; for concentrations that inhibited cell proliferation in P-388 cells: Table 9
Description: HT cells were treated with the diluted cucrubitacin E and I (100-1.56 μg/ml). After the cells were treated for 24 hours, cell viability was determined by MTT assay, which quantitatively measures the metabolic activity of living cells. […] Please see Table 9.
In addition to HT29 cells, P-388 leukemia cells were also determined by MTT assay. […] Please see Table 9.

HT29 cells [1] = experiment: Cell cycle distribution of HT29 cells by flow cytometry; assay type: cell-based, human; settings: increasing concentrations, FIG. 5
Description: The cell cycle of treated cells was examined by flow cytometry.

[2] = Partition coefficient between layers of a two-phase solvent system (HPLC peak area); assay type: physicochemical; settings: Hexane-EtOAc—MeOH—H2O 12.24.16.9, from peak areas of lower and upper layer
HT29 cells [3] = experiment: Cell morphology of HT29 cells, Giemsa staining, optical microscope; assay type: cell-based, human; settings: different concentrations, 24 hours, 10% Giemsa, FIG. 4
HT29 cells [4] = experiment: MTT cell viability assay in HT29 cells; assay type: cell-based, human; settings: for concentrations that greatly reduced cell viability in HT29 cells: 24 hours, MTT, Table 9; for IC50: Homo sapiens, HT-29, 24 h, read-out: IC50 on HT29 cells
Description: HT cells were treated with the diluted cucrubitacin E and I (100-1.56 μg/ml). After the cells were treated for 24 hours, cell viability was determined by MTT assay, which quantitatively measures the metabolic activity of living cells.
The effects of the extract of Aquilaria agallocha Roxb. hulls on cell toxicity in T24 cells (human bladder carcinoma cells), HT29 cells (human colon adenocarcinoma cells), HeLa cells (cervical carcinoma cells), AGS cells (gastric epithelial cancer cells) and Hep G2 lo cells (human hepatocellular liver carcinoma cells) were tested. The above-mentioned cells were treated with the extract of Aquilaria agallocha Roxb. hulls. The procedures of the cell toxicity test were the same as those mentioned in Example 5.

[5] = Description: Sephadex LH-20 gel (1.5 cm i.d.×36 cm) was used in the molecular sieve chromatography and methanol was used as the mobile phase.

solubility, in words [5] | Structure (SMILES) | IC50 (P-388 leukemia cells) | concentrations that inhibited cell proliferation in P-388 cells (P-388 leukemia cells) | cell cycle distribution, sub-G1 population (HT29 cells [1]) | partition coefficient [2] | cell morphology of HT29 cells (HT29 cells [3]) | concentrations that greatly reduced cell viability in HT29 cells (HT29 cells [4]) | IC50 (HT29 cells [4])
– | CC(=O)OC(C)(C)/C=C/C(=O)[C@](C)(O)C1[C@H](O)C[C@@]2(C)C3CC=C4C(C=C(O)C(=O)C4(C)C)[C@]3(C)C(=O)C[C@]12C (some centres unmarked) [Cucurbitacin E, cucurbitacin E] | 6.5 µg/mL (≈ 11.7 µM) | above 6.5 μM | sub-G1 populations increased | 0.90 | the nucleus were squeezed and the chromatin was condensed | above 14.1 μM | 14.1 µg/mL (≈ 25.3 µM)
– | CC(C)(O)/C=C/C(=O)[C@](C)(O)C1[C@H](O)C[C@@]2(C)C3CC=C4C(C=C(O)C(=O)C4(C)C)[C@]3(C)C(=O)C[C@]12C (some centres unmarked) [Cucurbitacin I, cucurbitacin I] | 7.4 µg/mL (≈ 14.4 µM) | > 7.4 µM | sub-G1 populations increased | 0.42 | the nucleus were squeezed and the chromatin was condensed | > 15.8 µM | 15.8 µg/mL (≈ 30.7 µM)
– | CC(=O)OC(C)(C)/C=C/C(=O)[C@](C)(O)C1[C@H](O)C[C@@]2(C)C3CC=C4C(C=C(O[C@@H]5OC(CO)[C@@H](O)C(O)C5O)C(=O)C4(C)C)[C@]3(C)C(=O)C[C@]12C (some centres unmarked) [cucurbitacin E glucoside] | – | – | – | 0.05 | – | – | –
– | CC(C)(O)/C=C/C(=O)[C@](C)(O)C1[C@H](O)C[C@@]2(C)C3CC=C4C(C=C(O[C@@H]5OC(CO)[C@@H](O)C(O)C5O)C(=O)C4(C)C)[C@]3(C)C(=O)C[C@]12C (some centres unmarked) [cucurbitacin I glucoside] | – | – | – | 0.03 | – | – | –
hard to dissolve in methanol | O=c1c2cc(O)c(O)cc2oc2cc(O)c([C@@H]3O[C@H](CO)[C@@H](O)[C@H](O)[C@H]3O)c(O)c12 [mangiferin] | – | – | – | – | – | – | –
